Laboratory results reported in patent US12606561B2, “Substituted pyrazolo[1,5-a][1,3,5]triazines as CDK inhibitors” (QURIENT CO., LTD., priority 2018, dated 2026).
pIC50: −log10 of the molar value.

Columns and labels:
CDK1/Cyclin B = molecular target: T1, CDK1/Cyclin B (Homo sapiens, UniProt P06493); assay: Enzymatic assay for CDK1 (LANCE Ultra kinase assay, FRET based); assay type: biochemical; settings: ATP at Km; read-out: CDK1 enzymatic activity IC50
T1 construct: purchased Invitrogen PR4768C
Procedure, shortened: (§1)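 With ATP set at its Km, compounds were tested against purified CDK/cyclin complexes phosphorylating a ULight-labeled peptide. Signal came from FRET between the peptide and a Europium-labeled anti-phospho-antibody.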

CDK7/Cyclin H/MNAT1 = molecular target: T2, CDK7/Cyclin H/MNAT1 (Homo sapiens, UniProt P50613); assay: Enzymatic assay for CDK7 (LANCE Ultra kinase assay, FRET based); assay type: biochemical; settings: for pIC50: ATP at Km
T2 construct: purchased Invitrogen PR6749B
Procedure, shortened: as §1

MV4-11 = assay: Cellular MV4-11 viability assay (CellTiter-Glo, 72 hours); assay type: cell-based; settings: Homo sapiens; MV4-11 cells
Procedure, shortened: (§2)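 After a 24 h attachment period, cells received a 0.0015–10 uM compound titration and were incubated 72 h at 37° C, 5% CO2. Viability came from CellTiter-Glo luminescence measured in duplicate.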

CDK5/p25 = molecular target: T3, CDK5/p25 (Homo sapiens, UniProt Q00535); assay: Enzymatic assay for CDK5 (LANCE Ultra kinase assay, FRET based); assay type: biochemical; settings: ATP at Km
T3 construct: purchased Invitrogen PR8543B
Procedure, shortened: (§3)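 TR-FRET kinase assay at ATP Km with ULight-MBP peptide (68 nM) and Eu-anti-phospho-MBP antibody; CDK2/Cyclin A at […], CDK5/p25 at […]. 8-dose 4-fold compound dilutions; 60 min kinase reaction at 23° C., EDTA stop, 60 min detection, read at 615/665 nm.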

OVCAR-3 = OVCAR-3 viability assay (CellTiter-Glo, 72 hours); assay type: cell-based; settings: Homo sapiens; OVCAR-3 cells
Procedure, shortened: as §2

CDK2/Cyclin A = molecular target: T4, CDK2/Cyclin A (Homo sapiens, UniProt P24941); assay: Enzymatic assay for CDK2 (LANCE Ultra kinase assay, FRET based); assay type: biochemical; settings: ATP at Km
T4 construct: purchased Invitrogen PV6290
Procedure, shortened: as §3

A2780 = A2780 viability assay (CellTiter-Glo, 72 hours); assay type: cell-based; settings: Homo sapiens; A2780 cells
Procedure, shortened: as §2

T3 sequence (Q00535 whole entry): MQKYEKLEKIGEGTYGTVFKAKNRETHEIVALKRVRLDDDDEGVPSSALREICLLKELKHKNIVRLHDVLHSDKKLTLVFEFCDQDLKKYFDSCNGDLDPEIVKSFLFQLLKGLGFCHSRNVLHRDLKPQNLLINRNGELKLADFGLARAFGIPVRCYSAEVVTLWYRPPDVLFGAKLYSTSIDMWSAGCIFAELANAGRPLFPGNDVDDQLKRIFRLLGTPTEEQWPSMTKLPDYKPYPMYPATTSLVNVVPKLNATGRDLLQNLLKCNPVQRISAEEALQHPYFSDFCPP
T3 sequence (Q15078 99-307 partner limits assumed): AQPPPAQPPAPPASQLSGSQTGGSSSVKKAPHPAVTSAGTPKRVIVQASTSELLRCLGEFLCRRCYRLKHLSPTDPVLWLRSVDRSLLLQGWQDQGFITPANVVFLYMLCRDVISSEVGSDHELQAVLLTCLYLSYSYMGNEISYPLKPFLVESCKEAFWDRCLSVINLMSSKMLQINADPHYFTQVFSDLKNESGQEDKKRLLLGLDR
T2 sequence (P50613 whole entry): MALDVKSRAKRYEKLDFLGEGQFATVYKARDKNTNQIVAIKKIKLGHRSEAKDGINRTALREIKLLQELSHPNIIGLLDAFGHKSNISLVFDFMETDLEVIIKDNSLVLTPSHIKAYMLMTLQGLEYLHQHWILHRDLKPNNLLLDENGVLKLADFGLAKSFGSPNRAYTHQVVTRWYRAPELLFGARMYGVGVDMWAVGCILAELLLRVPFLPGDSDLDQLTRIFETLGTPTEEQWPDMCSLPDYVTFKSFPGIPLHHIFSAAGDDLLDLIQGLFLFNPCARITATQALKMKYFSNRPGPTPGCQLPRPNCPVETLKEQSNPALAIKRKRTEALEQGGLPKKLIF
T2 sequence (P51946 whole entry partner): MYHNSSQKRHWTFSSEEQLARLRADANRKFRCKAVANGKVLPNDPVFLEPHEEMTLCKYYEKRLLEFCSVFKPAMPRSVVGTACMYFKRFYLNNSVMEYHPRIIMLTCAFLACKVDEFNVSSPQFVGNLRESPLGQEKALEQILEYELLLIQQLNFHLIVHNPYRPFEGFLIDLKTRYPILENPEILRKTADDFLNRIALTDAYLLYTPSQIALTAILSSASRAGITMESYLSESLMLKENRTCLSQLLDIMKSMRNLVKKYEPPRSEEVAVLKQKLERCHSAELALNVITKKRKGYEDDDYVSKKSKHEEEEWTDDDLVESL
T2 sequence (P51948 whole entry partner): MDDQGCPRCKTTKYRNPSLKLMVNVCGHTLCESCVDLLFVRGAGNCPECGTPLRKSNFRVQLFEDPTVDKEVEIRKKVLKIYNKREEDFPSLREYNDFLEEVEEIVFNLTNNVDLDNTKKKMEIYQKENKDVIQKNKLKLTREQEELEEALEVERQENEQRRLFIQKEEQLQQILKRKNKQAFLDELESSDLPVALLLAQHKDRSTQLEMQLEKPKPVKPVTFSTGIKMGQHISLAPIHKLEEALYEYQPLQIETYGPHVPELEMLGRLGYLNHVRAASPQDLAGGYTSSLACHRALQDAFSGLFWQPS
T1 sequence (P06493 whole entry): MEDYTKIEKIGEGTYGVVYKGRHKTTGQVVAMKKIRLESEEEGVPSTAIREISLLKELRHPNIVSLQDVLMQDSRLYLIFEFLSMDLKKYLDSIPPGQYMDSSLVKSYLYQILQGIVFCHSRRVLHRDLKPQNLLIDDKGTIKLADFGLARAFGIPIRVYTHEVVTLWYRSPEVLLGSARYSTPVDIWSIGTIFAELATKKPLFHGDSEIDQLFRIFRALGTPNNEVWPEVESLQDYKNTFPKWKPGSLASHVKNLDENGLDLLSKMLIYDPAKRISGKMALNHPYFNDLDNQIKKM
T1 sequence (P14635 whole entry partner): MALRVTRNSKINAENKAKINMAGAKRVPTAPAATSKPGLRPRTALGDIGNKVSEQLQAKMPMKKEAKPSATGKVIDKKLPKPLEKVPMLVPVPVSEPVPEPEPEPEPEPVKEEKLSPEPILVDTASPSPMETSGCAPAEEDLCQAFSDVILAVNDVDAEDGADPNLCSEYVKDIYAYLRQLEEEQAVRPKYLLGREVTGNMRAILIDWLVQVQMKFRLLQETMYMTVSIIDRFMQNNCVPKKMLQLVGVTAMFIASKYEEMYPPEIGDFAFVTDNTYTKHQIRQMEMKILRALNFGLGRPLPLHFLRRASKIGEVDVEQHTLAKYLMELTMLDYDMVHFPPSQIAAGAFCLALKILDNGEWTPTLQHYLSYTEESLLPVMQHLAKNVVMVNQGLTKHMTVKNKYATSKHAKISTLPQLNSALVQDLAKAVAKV

| Compound | pIC50 (CDK1/Cyclin B) | pIC50 (CDK7/Cyclin H/MNAT1) | CDK1/CDK7: Selectivity of CDK7 inhibition over CDK1 inhibition (CDK7/Cyclin H/MNAT1) | CDK2/CDK7: Selectivity of CDK7 inhibition over CDK2 inhibition (CDK7/Cyclin H/MNAT1) | CDK5/CDK7: Selectivity of CDK7 inhibition over CDK5 inhibition (CDK7/Cyclin H/MNAT1) | pIC50 (MV4-11) | pIC50 (CDK5/p25) | pIC50 (OVCAR-3) | pIC50 (CDK2/Cyclin A) | pIC50 (A2780) |
| --- | --- | --- | --- | --- | --- | --- | --- | --- | --- | --- |
| CC(C)c1cnn2c(NCc3ccccc3-c3nccc4cc(NC(=O)/C=C/CN5CCCCC5)ccc34)nc(NC[C@H]3CCNC[C@@H]3O)nc12 [Compound 76] | < 6.00 | > 7.00 | A (A indicates [fold] > 500) | A (A indicates [fold] > 500) | A (A indicates [fold] > 500) | > 6.00 | < 6.00 | > 6.00 | < 6.00 | > 6.00 |
| COC1CCN(c2nc(NCc3ccccc3-c3nccc4cc(NC(=O)/C=C/CN(C)C)ccc34)n3ncc(C(C)C)c3n2)CC1 [Compound 61] | < 6.00 | > 7.00 | A (A indicates [fold] > 500) | A (A indicates [fold] > 500) | A (A indicates [fold] > 500) | > 6.00 | < 6.00 | > 6.00 | < 6.00 | > 6.00 |
| CC(C)c1cnn2c(NCc3ccccc3-c3ccnc4cc(NC(=O)/C=C/CN(C)C)ccc34)nc(N3CCC(N)CC3)nc12 [Compound 55] | < 6.00 | > 7.00 | A (A indicates [fold] > 500) | A (A indicates [fold] > 500) | B (B indicates 50 < [fold] ≤ 500) | > 6.00 | < 6.00 | > 6.00 | < 6.00 | > 6.00 |
| C/C=C/C(=O)Nc1ccc2c(ccn2-c2ccccc2CNc2nc(NC[C@H]3CCNC[C@@H]3O)nc3c(C(C)C)cnn23)c1 [Compound 74] | < 6.00 | > 7.00 | B (B indicates 50 < [fold] ≤ 500) | B (B indicates 50 < [fold] ≤ 500) | B (B indicates 50 < [fold] ≤ 500) | > 6.00 | 6.00 to 7.00 | > 6.00 | < 6.00 | > 6.00 |
| CC(C)c1cnn2c(NCc3ccccc3-c3nccc4cc(NC(=O)/C=C/CN(C)C)ccc34)nc(NC3CCNCC3)nc12 [Compound 63] | < 6.00 | > 7.00 | A (A indicates [fold] > 500) | A (A indicates [fold] > 500) | A (A indicates [fold] > 500) | > 6.00 | < 6.00 | 5.00 to 6.00 | < 6.00 | 5.00 to 6.00 |
| C/C=C/C(=O)Nc1ccc2c(-c3ccccc3CNc3cc(NC[C@H]4CCNC[C@@H]4O)nc4c(C(C)C)cnn34)nccc2c1 [Compound 72] | < 6.00 | > 7.00 | A (A indicates [fold] > 500) | A (A indicates [fold] > 500) | A (A indicates [fold] > 500) | > 6.00 | < 6.00 | > 6.00 | < 6.00 | > 6.00 |
| C=CC(=O)Nc1ccc2c(-c3ccccc3CNc3nc(N4CCC(N)CC4)nc4c(C(C)C)cnn34)nccc2c1 [Compound 46] | < 6.00 | > 7.00 | A (A indicates [fold] > 500) | A (A indicates [fold] > 500) | A (A indicates [fold] > 500) | > 6.00 | < 6.00 | > 6.00 | < 6.00 | > 6.00 |
